Counter-ions that a name gives are not always drawn.
The compounds below were run against T1, sigma 2 receptor (Rattus norvegicus, UniProt Q5U3Y7) (assay: Sigma 2-selective receptor binding inhibition test ([3H]-DTG, rat liver P2 membrane fraction)). Conditions: [3H]-DTG 1 nM, 500 nM pentazocine, P2 fraction of livers of male Sprague-Dawley rats, 25° C., 2 hours.
T1 construct: A crude P2 membrane fraction was prepared from livers of male rats (Sprague-Dawley rats); from tissue; host or cells: rat liver (male Sprague-Dawley), crude P2 membrane fraction
T1 sequence (Q5U3Y7 1-176): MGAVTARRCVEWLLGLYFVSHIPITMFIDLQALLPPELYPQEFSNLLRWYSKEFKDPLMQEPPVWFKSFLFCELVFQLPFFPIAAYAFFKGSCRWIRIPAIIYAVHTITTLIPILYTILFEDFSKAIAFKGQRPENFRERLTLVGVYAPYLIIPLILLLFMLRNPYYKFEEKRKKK
Experimental: Sigma Binding Site-Binding Inhibition Test
A crude P2 membrane fraction was prepared from livers of male rats (Sprague-Dawley rats) according to a method described in the literature (X. He, et al., J. Med. Chem., 36, pp. 566–571, 1993). In the presence of 500 nM pentazocine and a control compound at various concentrations (haloperidol, 10^−10 to 10^−6 M) or a test ligand at various concentrations (10^−10 to 10^−5 M) together with a radioactive ligand, the P2 fraction (0.4 ml) was incubated in 50 mM Tris-HCl (pH 7.4, final volume: 0.5 ml) at 25° C. for 2 hours. The reaction mixture was rapidly filtered on a Brandel cell harvester using Whatman GF/B filter paper, which was immersed beforehand in 0.5% polyethyleneimine for 1 hour, to stop the reaction. The filter paper was washed 4 times with the ice cooled incubation buffer. The non-specific results were evaluated by using 1 μM haloperidol, and the scintillation analysis and the curve analysis were performed as described above.
Compound CC(C)(C)C(=O)CN1CCC(CN2Cc3ccccc3C2=O)CC1 [Example 24, 2-[[1-(3,3-Dimethyl-2-oxobutyl)piperidin-4-yl]methyl]isoindolin-1-one hydrochloride] has a Ki of 13 nM.
For O=C(CN1CCC(CN2Cc3ccccc3C2=O)CC1)c1ccc(F)cc1 [Example 1, 2-[[1-[2-(4-Fluorophenyl)-2-oxoethyl]piperidin-4-yl]methyl]isoindolin-1-one hydrochloride], the Ki was 13 nM.
O=C(CN1CCC(CN2CCc3ccccc3C2=O)CC1)c1ccc(F)cc1 [Example 137, 2-[[1-[2-(4-Fluorophenyl)-2-oxoethyl]piperidin-4-yl]methyl]-3,4-dihydroisoquinolin-1(2H)-one hydrochloride] gave a Ki of 7.8 nM.
O=C(CN1CCC(CN2Cc3ccc(Br)cc3C2=O)CC1)c1ccc(F)cc1 [Example 4, 6-Bromo-2-[[1-[2-(4-fluorophenyl)-2-oxoethyl]piperidin-4-yl]methyl]isoindolin-1-one hydrochloride] showed a Ki of 7.6 nM.
Compound O=C(CN1CCC(CN2Cc3ccc(F)cc3C2=O)CC1)c1ccc(F)cc1 [Example 7, 6-Fluoro-2-[[1-[2-(4-fluorophenyl)-2-oxoethyl]piperidin-4-yl]methyl]isoindolin-1-one hydrochloride] has a Ki of 16 nM.
For O=C1c2ccc(Br)cc2CN1CC1CCN(CCc2ccc(F)cc2)CC1 [Example 160, 5-Bromo-2-[1-[2-(4-fluorophenyl)ethyl]piperidin-4-ylmethyl]isoindolin-1-one fumarate], the Ki was 10 nM.
In the case of O=C(CN1CCC(CN2Cc3cc(Cl)ccc3C2=O)CC1)c1ccc(F)cc1 [Example 8, 5-Chloro-2-[[1-[2-(4-fluorophenyl)-2-oxoethyl]piperidin-4-yl]methyl]isoindolin-1-one hydrochloride], the Ki is reported as 3.1 nM.
In the case of O=C(CN1CCC(CN2Cc3c(Br)cccc3C2=O)CC1)c1ccc(F)cc1 [Example 2, 4-Bromo-2-[[1-[2-(4-fluorophenyl)-2-oxoethyl]piperidin-4-yl]methyl]isoindolin-1-one hydrochloride], the Ki is reported as 2.8 nM.
O=C(CCCN1CCC(CN2Cc3ccccc3C2=O)CC1)c1ccc(F)cc1 [Example 31, 2-[[1-[4-(4-Fluorophenyl)-4-oxobutyl]piperidin-4-yl]methyl]isoindolin-1-one hydrochloride] gave a Ki of 22 nM.
Work on COc1ccc2c(c1)CN(CC1CCN(CCc3ccc(F)cc3)CC1)C2=O [Example 159, 5-Methoxy-2-[1-[2-(4-fluorophenyl)ethyl]piperidin-4-ylmethyl]isoindolin-1-one fumarate] yielded a Ki of 25 nM.
With O=C(CN1CCC(CN2Cc3cc(F)ccc3C2=O)CC1)c1ccc(F)cc1 [Example 154, 5-Fluoro-2-[[1-[2-(4-fluorophenyl)-2-oxoethyl]piperidin-4-yl]methyl]isoindolin-1-one hydrochloride] the Ki was 16 nM.
O=C(CN1CCC(CN2Cc3ccccc3C2=O)CC1)c1ccccc1 [Example 13, 2-[[1-(2-Phenyl-2-oxoethyl)piperidin-4-yl]methyl]isoindolin-1-one hydrochloride] was tested, and the Ki was 6.6 nM.
Work on O=C(CCN1CCC(CN2Cc3ccccc3C2=O)CC1)c1ccccc1 [Example 30, 2-[[1-[3-Phenyl-3-oxopropyl]piperidin-4-yl]methyl]isoindolin-1-one hydrochloride] yielded a Ki of 22 nM.
Work on O=C1c2ccc(Br)cc2CN1CC1CCN(CC(O)c2ccc(F)cc2)CC1 (racemic) [Example 17, (R,S)-5-Bromo-2-[[1-[2-(4-fluorophenyl)-2-hydroxyethyl]piperidin-4-yl]methyl]isoindolin-1-one hydrochloride] yielded a Ki of 24 nM.

Same assay, conditions: test compound 10 nM; [3H]-DTG 1 nM, 500 nM pentazocine, rat liver P2 fraction
In the case of CCCCn1cccc1C(=O)CN1CCC(CN2Cc3ccccc3C2=O)CC1.Cl [Example 94, 2-[[1-[2-[2-(1-Butyl)pyrrolyl]-2-oxoethyl]piperidin-4-yl]methyl]isoindolin-1-one hydrochloride], the “Inhibitory rate against sigma 2 (%, 10 nM)” value is reported as 83%.

Same assay, conditions: test compound 10 nM; [3H]-DTG 1 nM, 500 nM pentazocine, rat liver P2 fraction; read-out: Inhibitory rate against sigma 2 (%, 10 nM)
Compound O=C1c2ccccc2CN1CC1CCN(CCSc2ccccc2F)CC1 [Example 112, 2-[[1-[2-(2-Fluorophenylthio)ethyl]piperidin-4-yl]methyl]isoindolin-1-one fumarate] has an inhibition at 0.01 µM of 60%.
O=C1c2ccc(Cl)cc2CN1CC1CCN(CCOc2ccc(F)cc2)CC1 [Example 178, 5-Chloro-2-[1-[2-(4-fluorophenoxy)ethyl]piperidin-4-ylmethyl]isoindolin-1-one fumarate] showed an inhibition at 0.01 µM of 50%.
In the case of COc1ccccc1CCN1CCC(CN2Cc3cc(Br)ccc3C2=O)CC1 [Example 167, 2-[1-[2-(2-Methoxyphenyl)ethyl]piperidin-4-ylmethyl]-5-bromoisoindolin-1-one hydrochloride], the inhibition at 0.01 µM is reported as 62%.
Work on Cc1ccccc1C(=O)CN1CCC(CN2Cc3ccccc3C2=O)CC1 [Example 77, 2-[[1-[2-(2-Tolyl)-2-oxoethyl]piperidin-4-yl]methyl]isoindolin-1-one fumarate] yielded an inhibition at 0.01 µM of 80%.
In the case of O=C1c2ccccc2CN1CC1CCN(CC(O)C2CCCCC2)CC1 (stereo not drawn) [Example 85, 2-[[1-(2-Cyclohexyl-2-hydroxyethyl)piperidin-4-yl]methyl]isoindolin-1-one fumarate], the inhibition at 0.01 µM is reported as 59%.
O=C1c2ccccc2CN1CC1CCN(CC(=O)N2CCCc3ccccc32)CC1 [Example 48, 2-[[1-[2-(1,2,3,4-Tetrahydroquinolin-1-yl)-2-oxoethyl]piperidin-4-yl]methyl]isoindolin-1-one hydrochloride] gave an inhibition at 0.01 µM of 59%.
In the case of O=C1c2ccccc2CN1CC1CCN(CCSc2ccccc2)CC1 [Example 109, 2-[[1-[2-(Phenylthio)ethyl]piperidin-4-yl]methyl]isoindolin-1-one fumarate], the inhibition at 0.01 µM is reported as 68%.
Work on O=C1c2ccccc2CN1CC1CCN(CCN2CCc3ccccc32)CC1 [Example 53, 2-[[1-[2-(Indolin-1-yl)ethyl]piperidin-4-yl]methyl]isoindolin-1-one fumarate] yielded an inhibition at 0.01 µM of 57%.
For O=C1c2ccccc2CN1CC1CCN(CCOc2cccc(F)c2)CC1 [Example 118, 2-[[1-[2-(3-Fluorophenoxy)ethyl]piperidin-4-yl]methyl]isoindolin-1-one fumarate], the inhibition at 0.01 µM was 50%.
O=C1c2ccc(Br)cc2CN1CC1CCN(CCOc2ccc(F)cc2)CC1 [Example 177, 2-[1-[2-(4-Fluorophenyloxy)ethyl]piperidin-4-ylmethyl]-5-bromoisoindolin-1-one hydrochloride] showed an inhibition at 0.01 µM of 55%.
With COc1ccccc1CCN1CCC(CN2Cc3cc(C#N)ccc3C2=O)CC1 [Example 170, 5-Cyano-2-[1-[2-(2-methoxyphenyl)ethyl]piperidin-4-ylmethyl]isoindolin-1-one fumarate] the inhibition at 0.01 µM was 52%.
O=C1c2ccccc2CN1CC1CCN(CCOc2ccccc2)CC1 [Example 114, 2-[[1-(2-Phenoxyethyl)piperidin-4-yl]methyl]isoindolin-1-one fumarate] showed an inhibition at 0.01 µM of 51%.
O=C1c2ccccc2CN1CC1CCN(CCc2cccc3ccccc23)CC1 [Example 97, 2-[[1-[2-(1-Naphthyl)ethyl]piperidin-4-yl]methyl]isoindolin-1-one fumarate] gave an inhibition at 0.01 µM of 59%.
Compound O=C1c2ccccc2CN1CC1CCN(CCSc2cccc(F)c2)CC1 [Example 113, 2-[[1-[2-(3-Fluorophenylthio)ethyl]piperidin-4-yl]methyl]isoindolin-1-one fumarate] has an inhibition at 0.01 µM of 64%.
Compound O=C1c2ccccc2CN1CC1CCN(CCOc2ccccc2F)CC1 [Example 117, 2-[[1-[2-(2-Fluorophenoxy)ethyl]piperidin-4-yl]methyl]isoindolin-1-one fumarate] has an inhibition at 0.01 µM of 52%.
Compound O=C(CN1CCC(CN2Cc3ccoc3C2=O)CC1)c1ccc(F)cc1 [Example 158, 5-[[1-[2-(4-Fluorophenyl)-2-oxoethyl]piperidin-4-yl]methyl]-4,5-dihydro-6H-furo[2,3-c]pyrrol-6-one fumarate] has an inhibition at 0.01 µM of 57%.
Cc1cccc(C(=O)CN2CCC(CN3Cc4ccccc4C3=O)CC2)c1 [Example 78, 2-[[1-[2-(3-Tolyl)-2-oxoethyl]piperidin-4-yl]methyl]isoindolin-1-one fumarate] gave an inhibition at 0.01 µM of 86%.
O=C(CN1CCC(CN2Cc3ccccc3C2=O)CC1)c1cccc(Cl)c1 [Example 76, 2-[[1-[2-(3-Chlorophenyl)-2-oxoethyl]piperidin-4-yl]methyl]isoindolin-1-one fumarate] gave an inhibition at 0.01 µM of 84%.
COc1cccc(SCCN2CCC(CN3Cc4ccccc4C3=O)CC2)c1 [Example 111, 2-[[1-[2-(3-Methoxyphenylthio)ethyl]piperidin-4-yl]methyl]isoindolin-1-one fumarate] showed an inhibition at 0.01 µM of 51%.
In the case of COc1ccccc1C(=O)CN1CCC(CN2Cc3ccccc3C2=O)CC1 [Example 72, 2-[[1-[2-(2-Methoxyphenyl)-2-oxoethyl]piperidin-4-yl]methyl]isoindolin-1-one fumarate], the inhibition at 0.01 µM is reported as 55%.
With O=C1c2cccc(F)c2CN1CC1CCN(CCOc2ccc(F)cc2)CC1 [Example 181, 4-Fluoro-2-[1-[2-(4-fluorophenoxy)ethyl]piperidin-4-ylmethyl]isoindolin-1-one fumarate] the inhibition at 0.01 µM was 70%.

From patent publication US7166617B2, “Cyclic amide derivatives” (Mitsubishi Pharma Corporation, priority 2000, dated 2007)
